{
  "source": "patent US6410572B1",
  "about": "(priority 2000, dated 2002)",
  "key": {"Phytophthora infestans": {"tested_on": "Phytophthora infestans", "assay_type": "in vivo", "conditions": "0.8 ppm active ingredient in the spray liquor; tomato leaves; after 6 days at 16-18° C."}, "Botrytis cinerea": {"tested_on": "Botrytis cinerea", "assay": "Activity against Botrytis cinerea on bell peppers (fruit disks, protective spray)", "assay_type": "in vivo", "conditions": "green bell pepper disks, 4 days at 18° C.", "description": "The active ingredients, separately or together, are formulated as a 10% emulsion in a mixture of 63% by weight of cyclohexanone and 27% by weight of emulsifier, and diluted with water to the desired concentration.\nEvaluation is carried out by determining the infected leaf areas in percent. These percentages are converted into efficacies. The efficacy (W) is calculated as follows using Abbot's formula: […]\nα corresponds to the fungal infection of the treated plants in % and\nβ corresponds to the fungal infection of the untreated (control) plants in %\nAn efficacy of 0 means that the infection level of the treated plants corresponds to that of the untreated control plants; an efficacy of 100 means that the treated plants were not infected.\nThe expected efficacies of the mixtures of the active ingredients were determined using Colby's formula [R. S. Colby, Weeds 15, 20-22 (1967)] and compared with the observed efficacies.\nColby's formula: E=x+y−x·y/100\nDisks of green bell peppers were sprayed to runoff point with an aqueous preparation of active ingredient which had been prepared from a stock solution comprising 10% of active ingredient, 63% of cyclohexanone and 27% of emulsifier. 2 hours after the spray coating had dried on, the fruit disks were inoculated with a spore suspension of Botrytis cinerea containing 1.7×10^6 spores per ml of a 2% strength Biomalz solution. The inoculated fruit disks were subsequently incubated in humid chambers at 18° C. for 4 days. The Botrytis infection on the diseased fruit disks was then evaluated visually."}, "[1]": {"conditions": "12.5 ppm active ingredient in the spray liquor"}, "[2]": {"conditions": "50 ppm active ingredient in the spray liquor"}},
  "data": [
    {"compound": "O=C(Nc1ccccc1-c1ccc(F)cc1)c1cccnc1Cl", "note": "[Compound I.1]", "values": [
      {"measurement": "Efficacy in % of the untreated control", "setting": "Phytophthora infestans", "value": 0, "unit": "%"},
      {"measurement": "Efficacy in % of the untreated control", "setting": "Botrytis cinerea; [1]", "value": 20, "unit": "%"}
    ]},
    {"compound": "O=C(Nc1ccccc1-c1ccc(Cl)cc1)c1cccnc1Cl", "note": "[Compound I.2]", "values": [
      {"measurement": "Efficacy in % of the untreated control", "setting": "Phytophthora infestans", "value": 0, "unit": "%"},
      {"measurement": "Efficacy in % of the untreated control", "setting": "Botrytis cinerea; [2]", "value": 85, "unit": "%"}
    ]},
    {"compound": "N#Cc1c(Cl)c(Cl)c(Cl)c(C#N)c1Cl", "note": "[Compound II, Tetrachloroisophthalonitrile, reference compound]", "values": [
      {"measurement": "Efficacy in % of the untreated control", "setting": "Phytophthora infestans", "value": 0, "unit": "%"},
      {"measurement": "Efficacy in % of the untreated control", "setting": "Botrytis cinerea; [1]", "value": 0, "unit": "%"},
      {"measurement": "Efficacy in % of the untreated control", "setting": "Botrytis cinerea; [2]", "value": 0, "unit": "%"}
    ]}
  ]
}
